These are literature values, as cited in patent US20180291400A1, “METHODS AND COMPOSITIONS TO INCREASE HUMAN SOMATIC CELL NUCLEAR TRANSFER (SCNT) EFFICIENCY BY REMOVING HISTONE H3-LYSINE TRIMETHYLATION, AND DERIVATION OF HUMAN NT-ESC” (CHILDREN'S MEDICAL CENTER CORPORATION, priority 2015, published 2018).

The structures appear in SMILES notation. Where only a bound is given, the exact number is not on record here.

The subject of series [1] is SETDB1 H3K9me3 HMTase.
For series [2], the target named is SUV39h2 (Homo sapiens, UniProt Q9H5I1).
Sequence of SUV39h2 (Q9H5I1 whole entry): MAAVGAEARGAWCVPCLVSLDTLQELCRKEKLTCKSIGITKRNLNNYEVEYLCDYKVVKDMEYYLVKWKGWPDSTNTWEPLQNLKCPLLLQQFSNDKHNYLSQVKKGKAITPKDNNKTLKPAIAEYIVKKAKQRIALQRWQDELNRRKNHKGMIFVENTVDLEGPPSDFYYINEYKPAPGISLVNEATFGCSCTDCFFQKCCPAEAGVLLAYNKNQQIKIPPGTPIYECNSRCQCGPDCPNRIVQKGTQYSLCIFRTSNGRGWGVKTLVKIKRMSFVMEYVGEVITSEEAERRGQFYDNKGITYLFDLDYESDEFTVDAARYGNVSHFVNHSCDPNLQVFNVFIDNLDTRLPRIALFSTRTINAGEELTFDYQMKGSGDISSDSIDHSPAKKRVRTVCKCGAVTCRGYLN

Take `Nc1nccc2c1ncn2[C@@H]1C=C(CO)[C@@H](O)[C@H]1O` [DZNep, 3-Deazaneplanocin A]: the “levels of H3K27me3 and H3K9me3” value in series [1] was “reduced levels of both H3K27me3 and H3K9me3”.

Regarding `COc1cc2c(NC3CCN(C(C)C)CC3)nc(C3CCCCC3)nc2cc1OCCCN1CCCC1` [UNC0638, 2-Cyclohexyl-N-(1-isopropylpiperidin-4-yl)-6-methoxy-7-(3-(pyrrolidin-1-yl)propoxy)quinazolin-4-amine], in series [2], the IC50 – broadly, the concentration that gives 50% inhibition – is greater than 10 µM.
